The record followed here is ChEMBL document CHEMBL4725278, “New coumarin/sulfocoumarin linked phenylacrylamides as selective transmembrane carbonic anhydrase inhibitors: Synthesis and in-vitro biological evaluation” (Bioorg Med Chem, 2020).

By Ki is commonly meant the dissociation constant of the complex between target and ligand, obtained from inhibition or displacement.

In assay [1] the target is Carbonic anhydrase 1 (Homo sapiens, UniProt P00915). As to the kind of experiment: Inhibition of recombinant human carbonic anhydrase 1 assessed as inhibition constant preincubated with enzyme for 10 mins by phenol red dye based stopped flow CO2 hydration assay.
Sequence of Carbonic anhydrase 1 (P00915 whole entry): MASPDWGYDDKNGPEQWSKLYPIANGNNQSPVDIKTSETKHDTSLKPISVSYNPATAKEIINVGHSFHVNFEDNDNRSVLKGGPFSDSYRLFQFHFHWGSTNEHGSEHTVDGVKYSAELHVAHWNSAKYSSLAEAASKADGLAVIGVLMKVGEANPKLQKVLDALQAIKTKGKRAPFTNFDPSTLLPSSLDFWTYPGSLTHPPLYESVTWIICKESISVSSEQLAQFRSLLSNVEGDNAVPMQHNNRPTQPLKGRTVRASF
The target of assay [2] is Carbonic anhydrase 9 (Homo sapiens, UniProt Q16790). As to the kind of experiment: Inhibition of recombinant human carbonic anhydrase 9 assessed as inhibition constant preincubated with enzyme for 10 mins by phenol red dye based stopped flow CO2 hydration assay.
The target in assay [3] is Carbonic anhydrase 2 (Homo sapiens, UniProt P00918). The assay is described as follows: Inhibition of recombinant human carbonic anhydrase 2 assessed as inhibition constant preincubated with enzyme for 10 mins by phenol red dye based stopped flow CO2 hydration assay.
Assay [4] addresses Carbonic anhydrase 12 (Homo sapiens, UniProt O43570). The assay is described as follows: Inhibition of recombinant human carbonic anhydrase 12 assessed as inhibition constant preincubated with enzyme for 10 mins by phenol red dye based stopped flow CO2 hydration assay.

Sequence of Carbonic anhydrase 12 (O43570 whole entry): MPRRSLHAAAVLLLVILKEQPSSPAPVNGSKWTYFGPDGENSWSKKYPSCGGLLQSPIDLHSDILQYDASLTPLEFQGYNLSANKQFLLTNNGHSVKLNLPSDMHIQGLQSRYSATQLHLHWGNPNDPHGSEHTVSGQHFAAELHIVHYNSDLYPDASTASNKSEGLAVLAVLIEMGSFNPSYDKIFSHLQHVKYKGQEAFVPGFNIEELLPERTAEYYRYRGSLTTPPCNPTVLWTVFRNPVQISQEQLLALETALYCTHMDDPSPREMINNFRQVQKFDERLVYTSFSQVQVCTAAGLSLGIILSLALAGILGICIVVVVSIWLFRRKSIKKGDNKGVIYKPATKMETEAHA

Consider `O=C(/C=C/c1ccc(Cl)cc1)Nc1ccc2oc(=O)ccc2c1`, for which the inhibition constant (Ki) in assay [1] is above 10000 nM; in assay [2], 88.9 nM; in assay [3] it was above 10000 nM; in assay [4] it was 343 nM.
For the compound `COc1ccc(/C=C/C(=O)Nc2ccc3oc(=O)ccc3c2)cc1OC`, the Ki in assay [1] was above 10000 nM; in assay [2], 321 nM; in assay [3] it was above 10000 nM; in assay [4] it was 15.5 nM.
On to `O=C(/C=C/c1cccc(C(F)(F)F)c1)Nc1ccc2oc(=O)ccc2c1`, for which the Ki in assay [1] is above 10000 nM; in assay [2] it was 88 nM; in assay [3], above 10000 nM; in assay [4], 221 nM.
With `O=C(/C=C/c1ccc(F)cc1)Nc1ccc2oc(=O)ccc2c1`, the Ki in assay [1] is above 10000 nM; in assay [2] it was 40.9 nM; in assay [3], above 10000 nM; in assay [4], 265 nM.
Take `Cc1cc(=O)oc2cc(NC(=O)/C=C/c3ccccc3OC(F)F)ccc12`: the Ki in assay [1] is above 10000 nM; in assay [2] it was 488 nM; in assay [3], above 10000 nM; in assay [4], 567 nM.
In the case of `O=C(/C=C/c1ccc(F)c(F)c1)Nc1ccc2oc(=O)ccc2c1`, the Ki in assay [1] was above 10000 nM; in assay [2], 340 nM; in assay [3] it was above 10000 nM; in assay [4], 206 nM.
As for `COc1ccc(/C=C/C(=O)Nc2ccc3oc(=O)ccc3c2)cc1`, the Ki in assay [1] is above 10000 nM; in assay [2], 884 nM; in assay [3] it was above 10000 nM; in assay [4], 427 nM.
With `COc1cc(/C=C/C(=O)Nc2ccc3c(C)cc(=O)oc3c2)cc(OC)c1OC`, the inhibitory constant (Ki) in assay [1] is above 10000 nM; in assay [2], 647 nM; in assay [3] it was above 10000 nM; in assay [4], 631 nM.
Regarding `O=C(/C=C/c1ccc(F)cc1)Nc1ccc2c(c1)C=CS(=O)(=O)O2`, the Ki is above 10000 nM in assay [1], 517 nM in assay [2], above 10000 nM in assay [3] and 506 nM in assay [4].
As for `COc1ccc(/C=C/C(=O)Nc2ccc3oc(=O)ccc3c2)c(F)c1`, the Ki in assay [1] was above 10000 nM; in assay [2], 472 nM; in assay [3], above 10000 nM; in assay [4], 137 nM.
`Cc1cc(=O)oc2cc(NC(=O)/C=C/c3cccc(F)c3)ccc12`: the Ki is above 10000 nM in assay [1], 639 nM in assay [2], above 10000 nM in assay [3] and 539 nM in assay [4].
In the case of `O=C(/C=C/c1ccc(F)c(F)c1)Nc1ccc2c(c1)C=CS(=O)(=O)O2`, the inhibitory constant (Ki) in assay [1] is above 10000 nM; in assay [2] it was 720 nM; in assay [3] it was above 10000 nM; in assay [4] it was 568 nM.
Regarding `COc1ccc(/C=C/C(=O)Nc2ccc3oc(=O)ccc3c2)c(OC)c1`, the inhibition constant (Ki) was above 10000 nM in assay [1], 87.4 nM in assay [2], above 10000 nM in assay [3] and 446 nM in assay [4].
Regarding `O=C(/C=C/c1cccc(C(F)(F)F)c1)Nc1ccc2c(c1)C=CS(=O)(=O)O2`, the Ki was above 10000 nM in assay [1], 65.4 nM in assay [2], above 10000 nM in assay [3] and 480 nM in assay [4].
As for `O=C(/C=C/c1ccccc1OC(F)F)Nc1ccc2oc(=O)ccc2c1`, the Ki in assay [1] was above 10000 nM; in assay [2], 384 nM; in assay [3] it was above 10000 nM; in assay [4], 394 nM.
For `Cc1cc(=O)oc2cc(NC(=O)NS(=O)(=O)c3ccc(F)cc3)ccc12`, the inhibition constant Ki worked out at 20.2 nM in assay [2] and 1.8 nM in assay [4].
Take `O=C(/C=C/c1ccc(C(F)(F)F)cc1)Nc1ccc2oc(=O)ccc2c1`: the Ki was above 10000 nM in assay [1], 91.1 nM in assay [2], above 10000 nM in assay [3] and 236 nM in assay [4].
Regarding `COc1ccc(/C=C/C(=O)Nc2ccc3c(C)cc(=O)oc3c2)cc1OC`, the Ki in assay [1] is above 10000 nM; in assay [2] it was 3040 nM; in assay [3], above 10000 nM; in assay [4], 644 nM.
On to `O=C(/C=C/c1cc(Cl)cc(Cl)c1)Nc1ccc2oc(=O)ccc2c1`, for which the inhibitory constant (Ki) in assay [1] was above 10000 nM; in assay [2] it was 305 nM; in assay [3], above 10000 nM; in assay [4] it was 701 nM.
As to `Cc1cc(=O)oc2cc(NC(=O)/C=C/c3ccc(C#N)cc3)ccc12`, the Ki in assay [1] was above 10000 nM; in assay [2], 854 nM; in assay [3] it was above 10000 nM; in assay [4] it was 575 nM.
Regarding `Cc1cc(=O)oc2cc(NC(=O)/C=C/c3ccc(F)cc3)ccc12`, the inhibition constant (Ki) in assay [1] was above 10000 nM; in assay [2], 682 nM; in assay [3] it was above 10000 nM; in assay [4] it was 604 nM.
As to `Cc1cc(=O)oc2cc(NC(=O)/C=C/c3ccc(F)c(F)c3)ccc12`, the inhibitory constant (Ki) is above 10000 nM in assay [1], 773 nM in assay [2], above 10000 nM in assay [3] and 699 nM in assay [4].
As to `N#Cc1ccc(/C=C/C(=O)Nc2ccc3oc(=O)ccc3c2)cc1`, the inhibition constant Ki in assay [1] is above 10000 nM; in assay [2], 881 nM; in assay [3], above 10000 nM; in assay [4], 760 nM.
In the case of `COc1ccc(/C=C/C(=O)Nc2ccc3c(c2)C=CS(=O)(=O)O3)c(F)c1`, the Ki was above 10000 nM in assay [1], 80.4 nM in assay [2], above 10000 nM in assay [3] and 399 nM in assay [4].
Take `COc1ccc(/C=C/C(=O)Nc2ccc3c(C)cc(=O)oc3c2)c(F)c1`: the Ki in assay [1] was above 10000 nM; in assay [2], 817 nM; in assay [3], above 10000 nM; in assay [4] it was 847 nM.
Consider `NS(=O)(=O)c1ccc(NC(=O)/C=C/c2ccccc2OC(F)F)cc1`, for which the Ki in assay [2] is 6 nM.
For `COc1cc(/C=C/C(=O)Nc2ccc3c(c2)C=CS(=O)(=O)O3)cc(OC)c1OC`, the inhibition constant (Ki) in assay [1] is above 10000 nM; in assay [2], 536 nM; in assay [3] it was above 10000 nM; in assay [4] it was 208 nM.
For `Cc1cc(=O)oc2cc(NC(=O)/C=C/c3ccccc3)ccc12`, the inhibition constant (Ki) in assay [1] was above 10000 nM; in assay [2] it was 514 nM; in assay [3], above 10000 nM; in assay [4] it was 649 nM.
Consider `O=C(/C=C/c1ccccc1OC(F)F)Nc1ccc2c(c1)C=CS(=O)(=O)O2`, for which the Ki is above 10000 nM in assay [1], 92.8 nM in assay [2], above 10000 nM in assay [3] and 349 nM in assay [4].
In the case of `COc1cc(/C=C/C(=O)Nc2ccc3oc(=O)ccc3c2)cc(OC)c1OC`, the Ki in assay [1] was above 10000 nM; in assay [2], 157 nM; in assay [3] it was above 10000 nM; in assay [4], 149 nM.
In the case of `O=C(/C=C/c1ccccc1)Nc1ccc2oc(=O)ccc2c1`, the Ki in assay [1] was above 10000 nM; in assay [2] it was 131 nM; in assay [3], above 10000 nM; in assay [4] it was 829 nM.
Consider `N#Cc1ccc(/C=C/C(=O)Nc2ccc3c(c2)C=CS(=O)(=O)O3)cc1`, for which the inhibition constant (Ki) in assay [1] was above 10000 nM; in assay [2], 39.8 nM; in assay [3] it was above 10000 nM; in assay [4], 520 nM.
For the compound `O=C(/C=C/c1cccc(F)c1)Nc1ccc2oc(=O)ccc2c1`, the Ki in assay [1] is above 10000 nM; in assay [2], 43 nM; in assay [3] it was above 10000 nM; in assay [4], 411 nM.
For the compound `O=C(/C=C/c1cccc([N+](=O)[O-])c1)Nc1ccc2oc(=O)ccc2c1`, the inhibition constant (Ki) was above 10000 nM in assay [1], 7210 nM in assay [2], above 10000 nM in assay [3] and 557 nM in assay [4].
